Experimental data as given in a melting point compilation (Tetko et al.; mined from patent text by program, amines drawn as free bases though some values may be those of a salt).

`CCOC(=O)C1(C(=O)OCC)CCC2(NCCc3cc(OC)c(OC)cc32)C(C2c3cc(OC)c(OC)cc3CCN2C(C)=O)C1` (stereo not drawn) and `CCN(CC)Cc1nc2cc(OC)c(OC)cc2c(-c2ccc(OC)c(OC)c2)c1C(C)=O` cannot be ordered by melting point: 146 to 149 °C for the first, 146 to 148 °C for the second.

Compared with `CCCCC(OC)c1c(C(C)C)nc(C(C)C)c(CO)c1-c1ccc(F)cc1` (stereo not drawn), `CCC(=O)N(Cc1ccc(OC)cc1)c1cc(F)cc(-c2nnn[nH]2)c1` is higher in melting point: 121 to 123 °C for the first, 158 to 160 °C for the second.

First: C1=C(c2ccc(-n3ccnc3)cc2)CCNC1
Second: O=C1CC(c2ccc(Cl)cc2)CC(=O)N1c1ccncc1
The melting point of the first is lower: 150 to 153 °C for the first, 204 to 206 °C for the second.

Compared with `CCCCCCCCCCCCCCC#Cc1cccc(C=O)n1`, `CCOC(=O)CCCCCCn1cnc2ccncc21` is higher in melting point: 38.5 to 40 °C for the first, 64 to 65 °C for the second.

First: COc1ccc(CNc2nc(OCc3ccccn3)ncc2C(=O)OCc2ccccn2)cc1Cl
Second: COc1ccc(C(=O)NNC(=O)c2occ(-c3ccccc3)c2-c2ccccc2)cc1F
The melting point of the first is higher: 115 to 120 °C for the first, 110 to 112 °C for the second.

Compared with `CC1(C)Oc2ccc(Cl)cc2[C@@H](N2CCCC2=O)[C@@H]1O` (relative stereo), `Oc1ccc(Cl)cc1C1(O)CCCCC1` is lower in melting point: 202 to 203 °C for the first, 110 °C for the second.

First: CC(=O)c1c(Cl)n(C)c2ccccc12
Second: CC(C)c1ccc2c(c1)c(=O)[nH]c1c2c2ccccc2n1C
The melting point of the first is lower: 180 °C for the first, 315 to 325 °C for the second.

First: Cn1ncc(-c2ccnc(Cl)n2)c1-c1ccc(Cl)cc1Cl
Second: Cc1nnc(Sc2nc3ccc(Cl)cc3nc2C)s1
The melting point of the first is lower: 122 to 125 °C for the first, 189 to 190 °C for the second.

First: Fc1cc(F)c2nc(CCC#Cc3ccccn3)cn2c1
Second: CCCOc1ccccc1-c1nc(-c2nnn[nH]2)cc(=O)[nH]1
The melting point of the first is lower: 130 to 131 °C for the first, 219 to 221 °C for the second.

First: COc1ccc(OC(C)=O)cc1[N+](=O)[O-]
Second: COC(=O)c1ccc(OC(C)=O)c(-n2cccc2)c1
The melting point of the first is higher: 93 to 97 °C for the first, 49 to 51 °C for the second.

First: CC(=N)NC=Cc1ccc([N+](=O)[O-])cc1
Second: Cc1nc(Nc2ccccc2)sc1C(=O)c1ccc(N)c([N+](=O)[O-])c1
The melting point of the first is lower: 142 to 143 °C for the first, 235 to 239 °C for the second.

Compared with `Cc1ccc(C)c(Cc2c3ccc(C(C)(C)C)cc3c(Cc3cc(C)ccc3C)c3ccc(C(C)(C)C)cc23)c1`, `CC(C)(C)c1ccc(S(=O)(=O)n2c(CCC(=O)O)cc3cc(Cl)ccc32)cc1` is lower in melting point: 273 to 275 °C for the first, 169 to 171 °C for the second.

First: CCCCCCCCCCCCCCCCS(=O)(=O)OC1CN(C2CCC3(C)C(CCC4C3CCC3(C)C(C(C)CCCC(C)C)CCC43)C2)C1 (stereo not drawn)
Second: CC(C)C(C)C=CC(C)C1CCC2C3CC(=O)C4CC=CCC4(C)C3CCC12C (stereo not drawn)
The melting point of the first is lower: 64.5 to 68 °C for the first, 118 to 120 °C for the second.

First: Cn1cccc(Cc2cc3cccc(-c4cccc(C(=O)NCCO)c4)c3s2)c1=O
Second: Cc1cccc(NC(=O)CN2C(=O)c3ccccc3C2=O)c1
The melting point of the first is lower: 173 to 174 °C for the first, 207 °C for the second.

Compared with `O=C(O)c1cn(-c2cccc(Br)c2)cn1`, `O=S(Cc1ccccc1)c1ncc(Br)cn1` (stereo not drawn) is lower in melting point: 205 to 207 °C for the first, 101 °C for the second.

First: CC(C)(C)[Si](C)(C)Oc1ccc(NC(=O)CN2CCC(O)(Cc3ccc(Cl)cc3)CC2)cc1
Second: CCN(CC)CC(=O)Nc1ccc(C2=NN(C(C)=O)C(C)Cc3cc4c(cc32)OCO4)cc1 (stereo not drawn)
The melting point of the first is lower: 135 to 136 °C for the first, 175 to 176 °C for the second.

First: N#Cc1cscc1Nc1ccc(Cl)cc1[N+](=O)[O-]
Second: Cc1cc(C#N)cc(C(=O)Nc2cccc(C(F)(F)F)c2)n1
The melting point of the first is higher: 214 °C for the first, 167 °C for the second.

First: CCCc1c(OCCOCCOc2ccc3ccc(OCC(=O)OC)cc3c2C(C)=O)ccc(C(C)=O)c1O
Second: CCCc1c(C(=O)N(C)Cc2ccc3c(Br)c(OCC#N)ccc3c2)cnn1-c1ccccc1
The melting point of the first is higher: 89 to 90 °C for the first, 76 to 80 °C for the second.

Compared with `C#CCN(Cc1ccc2nc(NC(=O)C(C)(C)C)[nH]c(=O)c2c1)c1ccc(S(=O)(=O)N(C)C)cc1`, `COC(=O)C(=O)Nc1ccc2c3c(n(CCCNC(=O)OC(C)(C)C)c(=O)c2c1)-c1ccccc1C3=O` is lower in melting point: 217 to 220 °C for the first, 157 to 159 °C for the second.

First: S=c1n(CNc2ccc(Br)cc2)nc(-c2ccncc2)n1-c1ccccc1
Second: CNC(=O)c1ccc([C@@H]2C[C@H]3C=C(c4c[nH]c(-c5ccc(F)c(Cl)c5)c4-c4ccncc4)CCN3C2)cc1
The melting point of the first is higher: 208 to 209 °C for the first, 176 to 178 °C for the second.

Compared with `O=C(O)C1=Cc2cc(Cl)c(OCC(F)(F)F)cc2OC1C(F)(F)F` (stereo not drawn), `CN1CCN(C(=O)CN2CCN(C(=O)c3cc(C(F)(F)F)cc(C(F)(F)F)c3)[C@H](Cc3c[nH]c4ccccc34)C2)CC1` is lower in melting point: 174 to 176 °C for the first, 105 to 108 °C for the second.

First: CCc1nc(NC)nc2c1ncn2C1CC(F)C(CO)O1 (stereo not drawn)
Second: Nc1ccn(C2CC(N)C(CO)O2)c(=O)n1 (stereo not drawn)
The melting point of the first is lower: 99 to 100 °C for the first, 207 °C for the second.

First: Cn1ncc(C(=O)N2C[C@H]3C[C@@H]2CO3)c1C(=O)Nc1ccn2nc(-c3cccnc3)nc2c1
Second: Cn1c(=O)[nH]c2c(C(N)=O)nc(-c3cccnc3)nc21
The melting point of the first is lower: 272 to 273 °C for the first, greater than 350 °C for the second.

Compared with `O=C(NO)C1C2CCC(CC2)C1S(=O)(=O)c1ccc(Oc2ccccc2)cc1` (stereo not drawn), `O=C(NC1CC1)c1ccc(-c2ccc(C(CC3CCOCC3)c3ccc(S(=O)(=O)C4CC4)cc3)[nH]2)nc1` (stereo not drawn) is higher in melting point: 89.9 to 91.8 °C for the first, 134 to 136 °C for the second.

Compared with `CCCS(=O)(=O)NCC1Cc2ccc(C3=NNC(=O)CC3)cc2C1` (stereo not drawn), `O=c1n(CCCC2CCCCC2)nnn1-c1ccc(S(=O)(=O)Cl)cc1` is lower in melting point: 158 to 159 °C for the first, 114 to 115 °C for the second.

First: N#Cc1ccc(NC(=O)OCc2cccnc2)cc1
Second: CC(C)(C)OC(=O)Nc1ccc(C#Cc2nccs2)cc1NC(=O)CC(=O)c1cccc(C#N)c1
The melting point of the first is higher: 205 to 207 °C for the first, 131 °C for the second.

First: CCC1(c2cn(-c3c(Cl)cc(C(F)(F)F)cc3Cl)nc2C#N)CC1
Second: N#Cc1cc(F)c(-n2nc(C(F)(F)F)n(C(F)F)c2=O)cc1F
The melting point of the first is higher: 118 to 119 °C for the first, 68 °C for the second.

First: COc1cc2c(c3c1OC(C)(C)C3)C(c1cccc(NC(=O)c3cccnc3)c1)=NC(C)(C)C2
Second: COc1cc(Nc2c(C#N)cnc3cc(-c4ccc(CN5CCC[C@@H]5C(N)=O)cc4)ccc23)c(Cl)cc1Cl
The melting point of the first is higher: 213 to 219 °C for the first, 180 to 182 °C for the second.

First: CCOC(=O)CCN1C(=O)NC(C)(CCc2cc(C(C)(C)C)c(O)c(C(C)(C)C)c2)C1=O (stereo not drawn)
Second: CCCOC(=O)c1cn(C(C)(C)C)c2ncc([N+](=O)[O-])cc12
The melting point of the first is lower: 100 °C for the first, 116 to 120 °C for the second.

Compared with `CC(C)C[C@H](NC(=O)c1cccs1)C(=O)N[C@@H](C(C)C)[C@@H](O)c1c(-c2ccccc2)c1=O`, `CC(C)CC(Sc1c(Cl)cccc1Cl)c1c(O)cc(-c2ccccc2)oc1=O` (stereo not drawn) is lower in melting point: 171 to 172 °C for the first, 158 to 162 °C for the second.

First: C=C(C)C(=O)OC(COc1ccc(C(=O)c2ccccc2)c(O)c1)COc1ccc(C(=O)c2ccccc2)c(O)c1
Second: CCOC(=O)COc1ccc(C(=O)Nc2ccccc2S(=O)(=O)c2ccccc2C#N)cc1
The melting point of the first is higher: 138 to 139 °C for the first, 131 to 132 °C for the second.

First: CC1Cc2c(c(S(N)(=O)=O)nn2C)C(=O)O1 (stereo not drawn)
Second: CCC(O)c1oc(C)cc(=O)c1O (stereo not drawn)
The melting point of the first is higher: 142 to 144 °C for the first, 134 to 136 °C for the second.

Compared with `CC(=O)OCC1(c2ccc(F)cc2)CCC(=O)CC1`, `CC(=O)N1CCC(C)(C)c2cc(F)cc(CCN3CCN(c4nsc5ccc(F)cc45)CC3)c21` is higher in melting point: 80 to 84 °C for the first, 128 °C for the second.

First: CSc1c(O[C@@H]2CCC[C@H](N3C(=O)c4ccccc4C3=O)C2)ccc2[nH]ncc12 (relative stereo)
Second: O=C(O)c1ccc2c(c1)CCC(CCN1CCC(c3ccccc3)CC1)C2=O (stereo not drawn)
The melting point of the first is higher: 156 to 157 °C for the first, 118 to 120 °C for the second.

First: N#CC(=C1Nc2ccccc2O1)S(=O)(=O)c1ccccc1
Second: CS(=O)(=O)Nc1cccc(SCc2ccccc2)n1
The melting point of the first is higher: 215 to 218 °C for the first, 123 to 125 °C for the second.

Compared with `N#Cc1ccc(N2CCOCC2)c2ccccc12`, `N=C(OCC1CC1)N1CCC(c2nsc3ccccc23)CC1` is lower in melting point: 128 to 129 °C for the first, 85 to 87 °C for the second.

Compared with `CC(=O)N(C)c1ccc(Cl)c(COc2cccn3c(Br)c(C)nc23)c1Cl`, `O=C1CCc2cc(OCc3ccccc3)c(O)cc21` is lower in melting point: 201 to 204 °C for the first, 140 to 142 °C for the second.

First: C=CCc1c(OC(C)=O)ccc2c(C)cc(=O)oc12
Second: CC[C@H](C)[C@H](Nc1nc2ccccc2c(=O)o1)C(=O)OC
The melting point of the first is higher: 98.8 to 99.8 °C for the first, 86 to 87 °C for the second.

First: C=C(C)CSc1nc2c(cc1C#N)C(=O)CCC2
Second: N#Cc1cc(N)c(N)c(C#N)c1
The melting point of the first is lower: 85 to 86 °C for the first, 240 to 244 °C for the second.

`CCON=CNC(=O)c1ccc(C2=NOC(c3cc(Cl)cc(Cl)c3)(C(F)(F)F)C2)cc1C` (stereo not drawn) and `NS(=O)(=O)c1ccc(-n2nc(C(F)(F)F)cc2-c2ccc(-c3ccco3)cc2)cn1` cannot be ordered by melting point: 143 to 146 °C for the first, 140 to 170 °C for the second.

Compared with `CC(O)(CCCCl)c1ccc(-c2cccc(F)c2)cc1` (stereo not drawn), `NC(=O)C(CCN1CC[C@@H](OCc2cccc(Cl)c2)C1)(c1ccccc1)c1ccccc1` is higher in melting point: 70 to 72 °C for the first, 91 to 93 °C for the second.

First: COc1ccc(Oc2c(N)cc(C(=O)O)cc2S)cc1
Second: CCNC(=O)[C@@H]1C[C@H](SCc2ccc(OC)cc2)CN1CC
The melting point of the first is higher: 182 to 184 °C for the first, 60 to 61 °C for the second.

First: CCC(=O)N1CCN(C(=O)Cl)CC1
Second: CCOC(=O)c1cn(C2CCCCC2)nc1O
The melting point of the first is lower: 45 °C for the first, 91 to 92 °C for the second.

Compared with `Cn1cccc1C(=NOCc1cccs1)C(=O)O`, `CCN(CC(C)Nc1c(C)cccc1C)C(C)=O` (stereo not drawn) is lower in melting point: 70 to 71 °C for the first, 58 to 60 °C for the second.

First: C#CCOC(=O)C(C#N)=C(SC)SC
Second: COC(=O)N=C(N)OC
The melting point of the first is higher: 77 to 79 °C for the first, 36 to 39.5 °C for the second.

First: COc1ccc(Cc2nc3c(cnn3C(CCCc3ccccc3)C(C)O)c(=O)[nH]2)cc1 (stereo not drawn)
Second: COc1ccc2nc(N3CCN(C[C@H]4COc5ccc6nc(C)ccc6c5O4)CC3)ccc2c1
The melting point of the first is lower: 41 °C for the first, 95 to 97 °C for the second.

Compared with `CCC(CC)N(O)C(=O)Nc1ccc(C)c(NC(=O)N(O)C(CC)CC)c1`, `N#CSc1cc(Cl)c(NCCC(=O)O)cc1Cl` is lower in melting point: 175 to 177 °C for the first, 133 to 135 °C for the second.

First: O=C1Nc2cc(C(F)(F)F)ccc2C1=O
Second: COCCOC(=O)OC[C@@H]1CC(c2ccc(-c3ccc(N4C[C@H](Cn5ccnn5)OC4=O)cc3F)cn2)=NO1
The melting point of the first is higher: 196 to 198 °C for the first, 112 °C for the second.

Compared with `COc1ccc(C(C)C)cc1-c1cc(-c2nnnn2C2CCN(C(=O)OC(C)(C)C)CC2)c(OCc2ccccc2)cc1OCc1ccccc1`, `CCOP(=O)(OCC)c1nc(N2CCOCC2)nc(N2CCOCC2)n1` is higher in melting point: 77 to 81 °C for the first, 114 to 116 °C for the second.
